Reference: patent US6335339B1, “Triazine antiviral compounds” (Scriptgen Pharmaceuticals, Inc., priority 1998, dated 2002)

Key:
HBV εRNA = assay: εRNA/oligonucleotide hybridization inhibition assay with rRNA competitor; assay type: binding, Hepatitis B virus; settings: for IC50: radiolabeled εRNA, 60-fold excess rRNA competitor; for Specificity: ratio RRE+rRNA IC50/εRNA+rRNA IC50, max = inactive in RRE assay
Text: One assay used in determining the activity of the compounds of the present invention is disclosed in copending U.S. patent application Ser. No. 08/709,342, filed Sep. 6, 1996, the disclosure of which is hereby incorporated herein by reference in its entirety. The assay detects the interaction between target RNA molecule and a test ligand by measuring the ligand's ability to inhibit hybridization between the RNA and a specific complementary oligonucleotide. In one embodiment, the target RNA is radiolabelled and the oligonucleotide is labeled with biotin; in this case, the extent of hybridization is determined by measuring the amount of radiolabeled RNA detected with a streptavidin/biotin-based capture system.
Concentrations of test compounds of between about 0.1 μM and about 200 μM are assayed for inhibition using radiolabeled εRNA in the absence or presence of a large excess of an unlabeled non-specific RNA competitor (such as, e.g., ribosomal RNA, rRNA). Compounds that bind εRNA non-specifically are competitively displaced by the rRNA, resulting in reduced or no inhibition of hybridization between the radiolabeled εRNA and the biotinylated oligonucleotide. Conversely, the inhibitory activity of compounds that specifically bind εRNA is not affected by the presence of the competitor rRNA.
The high throughput assays were performed in 96-well plates containing eighty drugs (5 μl, 60 μg/ml in DMSO) distributed one per well in columns 2-6 and 8-12 of the 8×12 96-well array. The remaining 16 wells in columns 1 and 7 were filled with 5 μl DMSO to serve as the control reactions. 45 μl of reaction mixture containing buffer, salts and radiolabeled target RNA were delivered on each well of the compound-containing plates to yield a 50 μl mixture containing 50 mM Tris-HCl, pH 7.5, 200 mM KCl, 5 mM MgCl2, 5 mM DTT, 6 μg/ml test compound, and 25 nM [^32 P]-labeled εRNA. The reaction was started by addition of the biotinylated oligonucleotide, 262.104 A (5 μl) to a final concentration of 100 nM. The reaction was incubated at 25° C. for 60 minutes, and then 5 μl of 0.3 mg/ml SAAP (streptavidin alkaline phosphatase conjugate, Pierce, Rockford, Ill.) was added. The reaction was incubated for an additional 30 minutes at 25° C. and filtered through 96-well format HATF nitrocellulose filters (Millipore, Bedford, Mass.) using a multiscreen vacuum manifold (Millipore, Bedford, Mass.). Subsequently, 300 μl of wash buffer (50 mM Tris-HCl, pH 7.5, 200 mM KCl) was filtered through to wash the filters. The filters were dried and supplemented with 20 μl scintillation fluid (Super Mix, Wallac Oy, Turku, Finland). The amount of hybrids formed was determined by scintillation counting of the radiolabeled εRNA retained on the filters.
The inhibitory effect of a test compound (expressed as percentage of inhibition, % Inh.) was calculated using the following formula: […]
where Ro is the average retention of hybrids in the 16 identical control reactions in columns 1 and 7 and Rx is the hybrids retained in the presence of a test drug, x.
(§1) Biotinylated oligonucleotides 262.104 A (5′-biotin-TTAGGCACAGCTTGGAGGCTTGAACAGTG-3′) and 208.92 A (5′-biotin-CGTCATTGACGCTGCGCCCA-3′) were synthetically prepared (Oligos Etc., Willsonville, Oreg.). These oligonucleotides are complementary to regions of the εRNA and RRE RNA targets, respectively.
A plasmid containing the target sequence following the bacteriophage SP6 promoter was used as a template for the synthesis of radiolabeled εRNA using [α^32 P]-UTP and SP6 RNA polymerase as described by the suppliers, e.g., Ambion, Austin, Tex., and by methods well known to those of ordinary skill in the art.
Compounds that inhibited the primary screening assay described above were individually titrated in the same assay at concentrations between 0.1 μM and 200 μM in the absence and presence of 60-fold excess rRNA as a non-specific competitor. […]

HIV derived RRE RNA = assay: heterologous hybridization inhibition assay with RRE RNA; assay type: binding; settings: radiolabeled RRE RNA, rRNA competitor
Text: Specificity is further tested in a third assay in which the radiolabeled RNA is the HIV derived RRE RNA and the biotinylated oligonucleotide is complementary to RRE. Compounds with high specific activity for εRNA are not expected to be inhibitory in the RRE RNA based assay. The specificity of the ligand for εRNA is expressed as the ratio between the IC50 value obtained with the specific target RNA and the IC50 value obtained with a heterologous target (RRE RNA), both in the presence of competitor RNA.
as §1
Compounds that inhibited the primary screening assay described above were individually titrated in the same assay at concentrations between 0.1 μM and 200 μM in the absence and presence of 60-fold excess rRNA as a non-specific competitor. A third titration was performed in a heterologous assay using radiolabeled RRE RNA as the target and the complementary biotinylated oligonucleotide 208.92 A. From these three assays, the IC50 values and specificity for each compound was calculated.
IC50 values using rRNA competitor (from Example 1) and radiolabeled RRE RNA are shown in Table 1 for the following ligands. […] Specificity is calculated as the ratio of RRE+rRNA IC50/εRNA+rRNA IC50.

Row | Structure (SMILES) | IC50 (HBV εRNA) [µM] | Specificity (HBV εRNA) | IC50 (HIV derived RRE RNA) [µM]
1 | CCOc1ccc(C=NNc2nc(Nc3ccc([N+](=O)[O-])cc3)nc(N3CCCCC3)n2)cc1O [Compound 129] | 25 | 4.8 | 120
2 | O=C1Nc2ccccc2C1=NNc1nc(Nc2ccc([N+](=O)[O-])cc2)nc(N2CCOCC2)n1 [Compound 130] | 32.9 | 12.2 | 400
3 | O=C(C(=NNc1nc(NCc2ccccc2)nc(Nc2ccc([N+](=O)[O-])cc2)n1)c1ccccc1)c1ccccc1 [Compound 131] | 36.7 | 1.0 | 36.7
4 | CCN(CC)c1nc(NN=CC=Cc2ccccc2)nc(Nc2ccc([N+](=O)[O-])cc2)n1 [Compound 132] | 70.1 | 11.4 | 800
5 | Cc1[nH]c2ccccc2c1C=NNc1nc(NCc2ccccc2)nc(N2CCOCC2)n1 [Compound 142] | 226 | 5.0 | 1130
6 | COc1ccc([N+](=O)[O-])cc1C=NNc1nc(Nc2ccccc2)nc(N2CCCCC2)n1 [Compound 143] | 446 | 0.5 | 223
7 | O=[N+]([O-])c1ccc(Nc2nc(NN=Cc3ccc(-c4ccc([N+](=O)[O-])cc4)o3)nc(Nc3ccccc3)n2)cc1 [Compound 144] | 1000 | 0.1 | 99.9
8 | CC(=NNc1nc(Nc2ccc([N+](=O)[O-])cc2)nc(N2CCCCC2)n1)c1ccccc1 [Compound 151] | 200 | 3.5 | 700
9 | O=[N+]([O-])c1ccc(Nc2nc(NN=Cc3ccc(O)c([N+](=O)[O-])c3)nc(N3CCOCC3)n2)cc1 [Compound 152] | 300 | 0.5 | 150
10 | O=C1Nc2ccccc2C1=NNc1nc(Nc2ccc([N+](=O)[O-])cc2)nc(N2CCCCC2)n1 [Compound 153] | 500 | 1.0 | 500
11 | CCCCN(CCCC)c1nc(NN=Cc2ccc(C=NNc3nc(Nc4ccc([N+](=O)[O-])cc4)nc(N(CCCC)CCCC)n3)cc2)nc(Nc2ccc([N+](=O)[O-])cc2)n1 [Compound 154] | 1180 | 0.3 | 300
